Assay results published in patent US6608090B1, “Benzothiophenes with novel basic side chains” (Eli Lilly and Company, priority 1995, dated 2003).

Columns and labels:
[1] = test system: ovariectomized (OVX) female Sprague Dawley rats; assay: Serum cholesterol in ovariectomized rats (post-menopausal model), 4 days of daily dosing; assay type: in vivo, rat; conditions: for Cholest. % dec. OVX: oral, daily for 4 days
Method: (§1) In the examples illustrating the methods, a post-menopausal model was used in which effects of different treatments upon circulating lipids were determined.
(§2) Seventy-five day old female Sprague Dawley rats (weight range of 200 to 225 g) were obtained from Charles River Laboratories (Portage, Mich.). The animals were either bilaterally ovariectomized (OVX) or exposed to a Sham surgical procedure at Charles River Laboratories, and then shipped after one week. Upon arrival, they were housed in metal hanging cages in groups of 3 or 4 per cage and had ad libitum access to food (calcium content approximately 0.5%) and water for one week. Room temperature was maintained at 22.2°±1.70° C. with a minimum relative humidity of 40%. The photoperiod in the room was 12 hours light and 12 hours dark.
(§3) Dosina Reaimen Tissue Collection. After a one week acclimation period (therefore, two weeks post-OVX) daily dosing with test compound was initiated. 17α-ethynyl estradiol or the test compound were given orally, unless otherwise stated, as a suspension in 1% carboxymethylcellulose or dissolved in 20% cyclodextrin. Animals were dosed daily for 4 days. Following the dosing regimen, animals were weighed and anesthetized with a ketamine: xylazine (2:1, V:V) mixture and a blood sample was collected by cardiac puncture. The animals were then sacrificed by asphyxiation with CO2, the uterus was removed through a midline incision, and a wet uterine weight was determined.
Cholesterol Analysis. Blood samples were allowed to clot at room temperature for 2 hours, and serum was obtained following centrifugation for 10 minutes at 3000 rpm. Serum cholesterol was determined using a Boehringer Mannheim Diagnostics high performance cholesterol assay. Briefly the cholesterol was oxidized to cholest-4-en-3-one and hydrogen peroxide. The hydrogen peroxide was then reacted with phenol and 4-aminophenazone in the presence of peroxidase to produce a p-quinone imine dye, which was read spectrophotemetrically at 500 nm. Cholesterol concentration was then calculated against a standard curve. The entire assay was automated using a Biomek Automated Workstation.

[2] = test system: ovariectomized (OVX) female Sprague Dawley rats; assay: Wet uterine weight in ovariectomized rats, 4 days of daily dosing; conditions: rat, in vivo, po, 0.1 mg/kg/day
Method: as §1, §2
as §3, with “Following the dosing regimen, animals were weighed and anesthetized with a ketamine: xylazine (2:1, V:V) mixture and a blood sample was collected by cardiac puncture.” left out

[3] = test system: ovariectomized rats; assay: Osteoporosis Test Procedure: femur density in ovariectomized rats, 35 days; assay type: in vivo, rat; conditions: oral, in 20% hydroxypropyl β-cyclodextrin, daily for 35 days
Method: Following the General Preparation Procedure, infra, the rats are treated daily for 35 days (6 rats per treatment group) and sacrificed by decapitation on the 36th day. The 35 day time period is sufficient to allow maximal reduction in bone density, measured as described herein. At the time of sacrifice, the uteri are removed, dissected free of extraneous tissue, and the fluid contents are expelled before determination of wet weight in order to confirm estrogen deficiency associated with complete ovariectomy. […] The uteri are then placed in 10% neutral buffered formalin to allow for subsequent histological analysis. The right femurs are excised and scanned at the distal metaphysis 1 mm from the patellar groove with single photon absorptiometry. Results of the densitometer measurements represent a calculation of bone density as a function of the bone mineral content and bone width. In accordance with the above procedures, compounds of the present invention and ethynyl estradiol (EE2) in 20% hydroxypropyl β-cyclodextrin are orally administered to test animals.

[4] = test system: uteri of ovariectomized (OVX) female Sprague Dawley rats; assay: Uterine Eosinophil Peroxidase (EPO) Assay; conditions: rat, in vivo

| Compound | Cholest. % dec. OVX ([1]; 0.1 mg/kg) [%] | Cholest. % dec. OVX ([1]; 1 mg/kg) [%] | Cholest. % dec. OVX ([1]; 10 mg/kg) [%] | effect on serum cholesterol (in words) ([1]; orally administered at 0.1 mg/Kg/day) | uterine weight compared with ovariectomized test animals (in words) [2] | loss of femur density (bone loss) after ovariectomy, in words [3] | eosinophil infiltration into the uterus (stromal layer), in words [4] |
| --- | --- | --- | --- | --- | --- | --- | --- |
| CC1CCN(CCOc2ccc(C(=O)c3c(-c4ccc(O)cc4)sc4cc(O)ccc34)cc2)CC1 | 43.2 | 71.0 | 51.6 |  |  |  |  |
| CC1(C)CCCN(CCOc2ccc(C(=O)c3c(-c4ccc(O)cc4)sc4cc(O)ccc34)cc2)C1 | 25.1 | 58.6 | 50.9 |  |  |  |  |
| CC1(C)CCN(CCOc2ccc(C(=O)c3c(-c4ccc(O)cc4)sc4cc(O)ccc34)cc2)CC1 | 14.5 | 25.9 | 65.8 |  |  |  |  |
| C[C@@H]1C[C@H](C)CN(CCOc2ccc(C(=O)c3c(-c4ccc(O)cc4)sc4cc(O)ccc34)cc2)C1 | 13.8 | 66.8 | 85.5 |  |  |  |  |
| CC1CCCC(C)N1CCOc1ccc(C(=O)c2c(-c3ccc(O)cc3)sc3cc(O)ccc23)cc1 (stereo not shown) | 41.5 | 62.3 | 76.9 |  |  |  |  |
| COC[C@@H]1CCCN1CCOc1ccc(C(=O)c2c(-c3ccc(O)cc3)sc3cc(O)ccc23)cc1 | 30.2 | 65.4 | 80.3 |  |  |  |  |
| O=C(c1ccc(OCCN2CCC[C@@H]2CO)cc1)c1c(-c2ccc(O)cc2)sc2cc(O)ccc12 | 42.0 | 40.6 | 71.9 |  |  |  |  |
| O=C(c1ccc(OCCN2CCC[C@H]2CO)cc1)c1c(-c2ccc(O)cc2)sc2cc(O)ccc12 | 46.7 | 73.7 | 74.5 |  |  |  |  |
| CC1CC(C)CN(CCOc2ccc(C(=O)c3c(-c4ccc(O)cc4)sc4cc(O)ccc34)cc2)C1 (racemic) | 50.6 | 69.7 | 81.6 |  |  |  |  |
| C#C[C@]1(O)CC[C@H]2[C@@H]3CCc4cc(O)ccc4[C@H]3CC[C@@]21C [EE2, 17α-ethynyl estradiol] |  |  |  | caused a decrease in serum cholesterol | substantially greater | prevents this loss | substantial, expected increase in esosinophils infiltration |
